How the values were obtained:
Phytophthora infestans = format: in vivo; details: tomato plants, preventive spray, 100 ppm of active ingredient, evaluated 7 days after inoculation
logP(HCOOH) by HPLC = format: physicochemical; details: HPLC on reversed phase columns, pH 2.7, 0.1% formic acid in water / acetonitrile, linear gradient 10% to 95% acetonitrile; EEC directive 79/831 Annex V.A8
Pythium ultimum = assay: Pythium test (cotton) / seed treatment; format: in vivo; details: 10 g/dt seed of active ingredient, emerged seedlings counted after 7 days in greenhouse
Description: Pythium Test (Cotton)/Seed Treatment
The test is performed under greenhouse conditions.
Cotton seeds, treated with the active compound or compound combinations, solved in N-methyl-2-pyrrolidon and diluted with water to the desired dosages, were sown in 6*6 cm pots containing 4 cm of a 1:1 mix of steamed field soil and sand.
Perlite was incubated with mycelium fragments of Pythium ultimum. 1 ml of infected perlite was scattered between the treated cotton seeds. Seeds were then covered by light expanded clay aggregate. Pots were incubated in the greenhouse 7 days at 20° C. and 80% relative humidity.
Assessment consisted of counting of emerged seedlings. 0% means an efficacy which corresponds to that of the control, while an efficacy of 100% means that all seedlings have emerged.

Plasmopara viticola = assay: Plasmopara test (grapevines) / preventive; format: in vivo; details: preventive spray, 10 ppm of active ingredient, evaluated 6 days after inoculation
Description: Plasmopara Test (Grapevines)/Preventive
Solvent: 24.5 parts by weight of acetone • 24.5 parts by weight of dimethylacetamide Emulsifier: 1 part by weight of alkylaryl polyglycol ether
To produce a suitable preparation of active compound, 1 part by weight of active compound is mixed with the stated amounts of solvent and emulsifier, and the concentrate is diluted with water to the desired concentration.
To test for preventive activity, young plants are sprayed with the preparation of active compound at the stated rate of application. After the spray coating has dried on, the plants are inoculated with an aqueous spore suspension of Plasmopara viticola and then remain for 1 day in an incubation cabinet at approximately 20° C. and a relative atmospheric humidity of 100%. The plant is subsequently placed for 4 days in a greenhouse at approximately 21° C. and a relative atmospheric humidity of approximately 90%. The plants are then misted and placed for 1 day in an incubation cabinet.
The test is evaluated 6 days after the inoculation. 0% means an efficacy which corresponds to that of the untreated control, while an efficacy of 100% means that no disease is observed.

Compound	Efficacy % (Phytophthora infestans) [%]	log p (logP(HCOOH) by HPLC)	Efficacy % (Pythium ultimum) [%]	Efficacy % (Plasmopara viticola) [%]
C#CCOC(C)C(=O)Nc1nc(CO/N=C(/c2ccccc2)c2nnnn2C)cs1 (stereo not drawn) [Example 51]	95	2.82	100	96
Cn1nnnc1C(=NOCc1csc(NC(=O)COC2CCCCCC2)n1)c1ccccc1 [Example 91]	100	4.23	96	94
C=C=CCCC(=O)Nc1cccc(CON=C(c2ccccc2)c2nnnn2C)n1 [Example 101]	93	3.21	100	81
Cn1nnnc1C(=NOCc1csc(NC(=O)COC2CCCCC2)n1)c1ccccc1 [Example 12]	92	3.85	100	94
CON=C(C(=O)Nc1nc(CON=C(c2ccccc2)c2nnnn2C)cs1)c1ccccc1Cl [Example 10]	95	3.87	88	90
C=CCCOC(C)C(=O)Nc1nc(CO/N=C(/c2ccccc2)c2nnnn2C)cs1 (stereo not drawn) [Example 46]	98	3.48		79
Cc1nnnn1C(=NOCc1csc(NC(=O)COC2CCCCC2)n1)c1ccccc1 [Example 78]	100	3.89		79
CC(=NOCC(=O)Nc1nc(CON=C(c2ccccc2)n2nnnc2C)cs1)c1ccccc1 [Example 39]	98	3.79	85	
C=C=CCCC(=O)Nc1nc(CON=C(c2ccccc2)c2nnnn2C)cs1 [Example 102]	80	3.11		83
Cn1nnnc1C(=NOCc1csc(NC(=O)OCCC2CCCCC2)n1)c1ccccc1 [Example 62]	100	4.66		88
C#CCOC(C)C(=O)Nc1nc(CO/N=C(/c2ccccc2)n2nnnc2C)cs1 (stereo not drawn) [Example 53]	95	2.92	100	95
